US9399625B2, “Acridone compounds” (Oregon Health & Science University, priority 2006, dated 2016)
pIC50, pKi: −log10 of the molar value. “Also recorded” adds a separate entry of the source. Where two headings read alike, the source gives them in different places. Blank lines part the entries; values can stand above or below the compound they belong to.

Key:
[1] = tested on: P. berghei (ANKA); experiment: Efficacy vs patent P. berghei infection in mice
[2] = target: T1, recombinant human norepinephrine transporter (hNET) (Homo sapiens, UniProt P23975); experiment: [125I]RTI-55 binding, HEK-hNET
T1 construct: expressed in transfected cells
T1 sequence (P23975 whole entry): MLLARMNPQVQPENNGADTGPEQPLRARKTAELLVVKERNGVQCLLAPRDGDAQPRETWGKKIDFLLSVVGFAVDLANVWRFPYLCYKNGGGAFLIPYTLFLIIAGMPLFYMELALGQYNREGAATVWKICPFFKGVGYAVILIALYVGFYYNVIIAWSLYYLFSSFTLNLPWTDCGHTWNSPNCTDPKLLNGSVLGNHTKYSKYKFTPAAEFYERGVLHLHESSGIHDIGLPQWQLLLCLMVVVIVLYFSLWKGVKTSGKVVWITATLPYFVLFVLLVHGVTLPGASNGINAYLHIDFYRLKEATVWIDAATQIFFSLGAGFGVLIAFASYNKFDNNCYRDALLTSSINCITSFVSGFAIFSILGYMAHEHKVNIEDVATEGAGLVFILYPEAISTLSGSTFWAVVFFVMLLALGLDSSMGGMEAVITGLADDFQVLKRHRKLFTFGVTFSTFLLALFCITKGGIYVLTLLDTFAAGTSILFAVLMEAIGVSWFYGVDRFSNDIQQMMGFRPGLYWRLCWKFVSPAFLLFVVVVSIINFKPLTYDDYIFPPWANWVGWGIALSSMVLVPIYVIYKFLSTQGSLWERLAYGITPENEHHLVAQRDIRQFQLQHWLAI

[3] = tested on: CQ-sensitive D6 strain of P. falciparum; experiment: In vitro antimalarial activity, SYBR Green MSF assay, D6; type: cell-based; settings: Plasmodium falciparum
From the text: (§1) This example describes the screening of disclosed antimalarial acridones against the CQ-sensitive D6 strain and the MDR Dd2 strain of P. falciparum for in vitro antimalarial activity.

[4] = tested on: P. yoelii sporozoites; experiment: Prophylactic efficacy, murine sporozoite-induced malaria model; type: in vivo; settings: 160 mg/kg ig on days −1, 0 and 1
Method: This example evaluates the prophylactic efficacy of the acridone T2. T2 was evaluated in a murine P. yoelii sporozoite-induced malaria model to determine prophylactic efficacy.
Mice were treated with 160 mg/kg ig, on days −1, 0, and 1 with injection of 250,000 sporozoites on day 0.

[5] = target: T2, recombinant human dopamine transporter (hDAT) (Homo sapiens, UniProt Q01959); experiment: [125I]RTI-55 binding, HEK-hDAT
T2 construct: expressed in transfected cells
T2 sequence (Q01959 whole entry): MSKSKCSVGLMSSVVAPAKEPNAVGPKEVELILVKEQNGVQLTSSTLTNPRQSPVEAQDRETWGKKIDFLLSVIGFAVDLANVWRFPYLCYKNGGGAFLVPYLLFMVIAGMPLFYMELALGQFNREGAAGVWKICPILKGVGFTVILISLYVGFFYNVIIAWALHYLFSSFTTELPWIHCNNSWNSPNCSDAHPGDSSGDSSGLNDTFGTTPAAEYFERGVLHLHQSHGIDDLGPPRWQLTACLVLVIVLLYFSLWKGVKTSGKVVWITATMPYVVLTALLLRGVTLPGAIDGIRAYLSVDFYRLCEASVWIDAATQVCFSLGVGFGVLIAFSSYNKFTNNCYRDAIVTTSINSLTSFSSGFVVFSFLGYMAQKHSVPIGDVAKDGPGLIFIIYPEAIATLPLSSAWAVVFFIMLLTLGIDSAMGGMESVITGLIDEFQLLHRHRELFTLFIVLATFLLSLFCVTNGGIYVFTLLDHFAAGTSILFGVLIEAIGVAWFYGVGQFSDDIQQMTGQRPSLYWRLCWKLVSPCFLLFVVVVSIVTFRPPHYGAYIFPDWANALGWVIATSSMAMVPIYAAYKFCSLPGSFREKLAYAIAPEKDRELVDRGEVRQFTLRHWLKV

[6] = General toxicity in treated mice; settings: 256 mg/kg/day×3 days
[7] = Heme-binding affinity (spectrophotometric titration); settings: Table 3
From the text: With continued reference to FIG. 1, panel B illustrates the spectrophotometric titration curve of the heme:3,6-bis-ε-(N,N-diethylamino)-amyloxy xanthone (C5) complex. The apparent binding constant was derived from the best fit (solid line) of a 1:1 (heme dimer:C5) association model. […] Panels A and B show the fluorescence localization of C5 and LysoTracker Red, respectively.

[8] = target: T3, recombinant human serotonin transporter (hSERT) (Homo sapiens, UniProt P31645); experiment: [125I]RTI-55 binding, HEK-hSERT
T3 construct: expressed in transfected cells
T3 sequence (P31645 whole entry): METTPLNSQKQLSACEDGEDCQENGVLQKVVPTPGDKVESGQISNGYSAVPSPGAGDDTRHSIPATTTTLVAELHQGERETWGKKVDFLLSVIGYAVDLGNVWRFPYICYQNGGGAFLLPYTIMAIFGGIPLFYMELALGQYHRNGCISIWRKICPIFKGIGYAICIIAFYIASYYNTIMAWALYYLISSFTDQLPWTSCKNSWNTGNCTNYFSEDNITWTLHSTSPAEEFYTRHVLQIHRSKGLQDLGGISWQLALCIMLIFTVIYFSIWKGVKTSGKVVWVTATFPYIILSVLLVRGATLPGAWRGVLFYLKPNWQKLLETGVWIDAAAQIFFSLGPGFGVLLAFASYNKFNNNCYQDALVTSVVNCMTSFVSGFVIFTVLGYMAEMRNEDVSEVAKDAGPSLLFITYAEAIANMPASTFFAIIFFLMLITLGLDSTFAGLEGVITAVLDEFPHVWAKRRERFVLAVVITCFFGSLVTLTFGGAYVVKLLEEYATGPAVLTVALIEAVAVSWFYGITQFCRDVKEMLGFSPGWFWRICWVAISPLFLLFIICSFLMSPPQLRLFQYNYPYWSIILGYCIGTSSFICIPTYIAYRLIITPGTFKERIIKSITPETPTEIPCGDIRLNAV

[9] = tested on: MDR Dd2 strain of P. falciparum; experiment: In vitro antimalarial activity, SYBR Green MSF assay, Dd2; type: cell-based; settings: Plasmodium falciparum
From the text: as §1
As shown in Table 3 and Table 4, selected soluble acridone derivatives were screened for antimalarial activity against the CQ-sensitive D6 and the MDR Dd2 strains of P. falciparum.

[10] = tested on: MDR P. falciparum Dd2; experiment: Fixed-ratio combination (isobologram) with quinoline antimalarials, Dd2; type: cell-based; settings: isobolar analysis
Method: In one embodiment, synergism is assessed herein using fixed-ratio combinations that provide information over a wide range of drug concentrations. […] If these stock solutions were termed Drug A and Drug B, then six final stock solutions were prepared from this initial stock: Drug A alone, Drug B alone, and volume:volume mixtures of Drug A and B in the following ratios: 4:1, 3:2, 2:3, and 1:4. Two-fold dilutions of each of the six final stock solutions were done robotically across a 96-well plate in quadruplicate. Subsequent steps were typical of standard drug-susceptibility methods. […] The data pointed from all six curves were then analyzed using Calcusyn software (commercially available from BioSoft, Cambridge, UK) for determination of synergy. Output from this analysis included FIC values used to plot isobolograms as well as a rigorously determined synergy index, termed the combination index (CI) (Calcusyn). FIC50 isobolograms, CI's and tabulation of IC90 component drug concentrations were reported.
The combinations of the acridones T3.5 and T2 with quinine were assessed for synergism.
FIG. 6 is an isobologram charting the efficacy of quinine in combination with T3.5 in vitro against CQ-sensitive (D6) and MDR (Dd2) P. falciparum.

[11] = In vitro heme aggregation assay; settings: 25 mM phosphate buffer, pH 4.8, 30 minutes at room temperature
Method: This example describes the in vitro inhibition of heme aggregation by xanthone 2,3,4,5,6-pentahydroxyxanthone. Conditions: 25 mM Phosphate buffer, pH 5.2, 1 hour incubation at 37° C. Further details of this assay are described by Ignatushchenko et al. in Xanthones as antimalarial agents; studies of a possible mode of action.
This example describes visual evidence that acridones disclosed herein form soluble complexes with heme under mildly acidic conditions. […] Employing the same assay conditions, heme was mixed with T2 or T3.5 under mildly acidic conditions (25 mM phosphate buffer, pH 4.8) and monitored. […] Without being limited to theory, it is believed that for some compounds inhibition of heme aggregation in vitro can be correlated with inhibition of hemozoin formation in vivo.

[12] = tested on: CQ-sensitive P. yoelii (strain K); experiment: 4-day suppressive test in female CF-1 mice; type: in vivo
Method: This example describes evaluation of the in vivo antimalarial efficacy of the disclosed acridones against CQ-sensitive P. yoelii (strain K) in female CF-1 mice. Illustrated in FIG. 2, are the results of a 4-day suppressive test with acridone T2 (3-(2-diethylaminoethoxy)-6-chloro-9-acridone)) in PBS administered intragastrically (ig) by gavage one hour after infection and then once daily, 24, 48 and 72 hours later.
This example describes evaluation of acridones in rodent models of blood-stage malaria.

[13] = tested on: P. yoelii; experiment: Single-dose ig efficacy after patent infection in mice; type: in vivo; settings: single ig dose 100 mg/kg; HCl salt
[14] = tested on: P. yoelii (K); experiment: Curative efficacy vs patent infection, three once-daily doses (adapted 6-day Thompson test)
[15] = tested on: murine splenic lymphocytes (MSLCs); experiment: Cytotoxicity by Alamar Blue assay; settings: for IVTI: ratio of cytotoxicity IC50 (vs. MSLCs) to antimalarial IC50 against D6; for pIC50: cytotoxicity
[16] = tested on: MDR P. falciparum strain Dd2; experiment: In vitro chemosensitization to chloroquine (RMI), strain Dd2; type: cell-based; settings: Plasmodium falciparum, DD2, read-out: IC50 of CQ in combination with 5 μM of selected drug, Dd2
[17] = tested on: CQS (D6) strain of P. falciparum; experiment: In vitro chemosensitizing effects of acridones (RMI), D6; type: cell-based; settings: Plasmodium falciparum, D6, read-out: IC50 of CQ, D6
From the text: (§2) Antimalarial drug combinations can be assessed in a number of ways. For example, the response modification index (RMI) can be calculated by the following formula: RMI=IC50 of drug A in the presence of drug B/IC50 of drug A alone, where drug A is an existing antimalarial and B is a single sub-inhibitory concentration of the acridone candidate. An RMI less than 1.0 represents chemosensitization and possible synergy. A second method of evaluating combination therapies is Fractional Inhibitory Concentration, (e.g., FIC50=[IC50 of Drug A in the presence of a fixed amount of Drug B]/[IC50 of Drug A alone]). RMI and FIC are helpful measures for side-by-side comparison of multiple chemosensitizer drugs at fixed concentrations, but neither distinguishes between additive and synergistic effects, or describes effects over a wide concentration range. Standard FIC indices (FIC of Drug A+FIC of Drug B) distinguish synergistic, additive and antagonistic interactions, but are dependent on the correct estimation of the expected effect of the fixed test drug.

[18] = tested on: MDR P. falciparum strain W2; experiment: In vitro chemosensitization to chloroquine (RMI), strain W2; type: cell-based; settings: Plasmodium falciparum, W2, read-out: IC50 of CQ in combination with 5 μM of selected drug, W2
[19] = tested on: MDR (Dd2) strain of P. falciparum; experiment: In vitro chemosensitizing effects of acridones (RMI), Dd2; type: cell-based; settings: Plasmodium falciparum, DD2, read-out: IC50 of CQ, Dd2
From the text: as §2

[20] = tested on: late trophozoites in PRBCs; experiment: Morphological changes in acridone treated parasites (blood smears, light microscopy); settings: compared to drug-free controls
From the text: This example provides morphological changes in acridone treated parasites. […] These preliminary evaluations of blood smears by light microscopy indicate that acridones cause alterations in parasite morphology and viability.

[21] = D6, Table 2, average of 4 independent experiments, read-out: IC50, D6
[22] = D6, Table 3, MSF assay, read-out: IC50 P. falciparum D6
[23] = DD2, Table 2, average of 4 independent experiments, read-out: IC50, Dd2
[24] = DD2, Table 3, MSF assay, read-out: IC50 P. falciparum Dd2

SMILES: CCN(CC)CCOc1ccc2c(=O)c3ccc(Cl)cc3[nH]c2c1 [T2, 3-(2-diethylaminoethoxy)-6-chloro-9-acridone]
- ED90 ([1]; P. berghei (ANKA)): 80 mg/kg/day
- ED50 ([1]; patent P. berghei (ANKA) infection, by gavage): 55 mg/kg/day
- pKi [2]: 5.23
- pIC50 [3, 21]: 7.74
- pIC50 [3, 22]: 7.59
- toxicity [4]: No toxicity was observed
- treated animals parasite-free on days 6, 11 and 14 [4]: all 5 treated animals to be parasite-free
- pKi [5]: < 5.00
- weight loss [6]: 10%
- Heme-binding Ka [7]: 4.3 10^4 M^−1
- pKi [8]: < 5.00
- pIC50 [9, 23]: 7.77
- pIC50 [9, 24]: 7.48
- interaction with quinine [10]: not and no evidence of synergy
- formation of heme aggregates [11]: prevent the formation of heme aggregates
- mice parasite-free to the end of the observation period ([12]; 200 mg/kg/day): all of the four mice in that group remained parasite-free
- suppression of parasitemia ([12]; 200 mg/kg/day, assessed 24 hours after the last dose): completely suppressed parasitemia; also recorded: complete suppression
- ED50 ([12]; Plasmodium yoelii, po, 96 h, ig by gavage, once daily, 4 days): 27.1 mg/kg
- ED90 ([12]; ig by gavage, once daily, 4 days): 42 mg/kg
- reduction of parasitemia at 72 hours [13]: greater than 90%
- long-term outcome (parasitemia at 30 days, cure) ([14]; 256 mg/kg/day): long-term cure
- ED50 and ED90, gavage (ig) dosing, in words ([14]; ig, three once-daily doses): comparable
- ED50 (ip) ([14]; ip once daily for three days): 38 mg/kg/day
- ED90 (ip) ([14]; ip once daily for three days): 66 mg/kg/day
- cytotoxicity at the highest tested concentration ([15]; 25 μM): no evidence of cytotoxicity
- IVTI [15]: >1389
- pIC50 ([15]; read-out: IC50, MSLCs, Table 2): < 4.60
- pIC50 ([15]; read-out: IC50 MSLCs, Table 3): < 4.60

SMILES: CCN(CC)CCCC(C)Nc1ccnc2cc(Cl)ccc12 (centres unmarked) [Chloroquine, reference compound]
- pIC50 [16]: 7.00
- pIC50 ([3]; D6, read-out: IC50, D6): 8.17
- pIC50 ([3]; D6, read-out: IC50 P. falciparum D6): 8.08
- pIC50 ([3]; D6, read-out: IC50 of CQ, CQ-sensitive strain D6): 7.82
- pIC50 [17]: 8.08
- pIC50 [18]: 6.54
- pIC50 [19]: 6.91
- Heme-binding Ka [7]: 5.5 10^4 M^−1
- pIC50 ([9]; DD2, read-out: IC50, Dd2): 6.88
- pIC50 ([9]; DD2, read-out: IC50 P. falciparum Dd2): 6.91
- formation of heme aggregates [11]: fails to prevent heme aggregation

- pIC50 [3, 21]: 6.78
- pIC50 [3, 22]: 6.78
- pIC50 [9, 23]: 6.80
- pIC50 [9, 24]: 6.80
SMILES: CCN(CC)CCOc1ccc2c(=O)c3ccccc3[nH]c2c1 [T1, 3-(2-diethylaminoethoxy)-9-acridone]
- appearance of treated late trophozoites [20]: pale staining with loss of intracellular definition and fragmented hemozoin
- IVTI [15]: >150
- pIC50 ([15]; read-out: IC50, MSLCs, Table 2): < 4.60
- pIC50 ([15]; read-out: IC50 MSLCs, Table 3): < 4.60
